# According to PubChem BioAssay (NCI):
#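 GI50 marks 50% less growth. TGI is the concentration that stops growth completely.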
# Key:
# Experiment in all cases: NCI anticancer screen, dose series, 384-well format
# SNB-75 CNS = tested on: SNB-75 CNS
# SK-MEL-5 melanoma = tested on: SK-MEL-5 melanoma
# OVCAR-4 ovarian = tested on: OVCAR-4 ovarian
# MCF7 breast = tested on: MCF7 breast
# A498 renal = tested on: A498 renal
# UACC-257 melanoma = tested on: UACC-257 melanoma
# MDA-MB-435 melanoma = tested on: MDA-MB-435 melanoma
# PC-3 prostate = tested on: PC-3 prostate
# SN12C renal = tested on: SN12C renal
# NCI/ADR-RES ovarian = tested on: NCI/ADR-RES ovarian
# SF-539 CNS = tested on: SF-539 CNS
# TK-10 renal = tested on: TK-10 renal
# HCT-116 colon = tested on: HCT-116 colon
# HCT-15 colon = tested on: HCT-15 colon
# HOP-92 NSCLC = tested on: HOP-92 NSCLC
# OVCAR-3 ovarian = tested on: OVCAR-3 ovarian
# CCRF-CEM leukemia = tested on: CCRF-CEM leukemia
# HOP-62 NSCLC = tested on: HOP-62 NSCLC
# NCI-H23 lung = tested on: NCI-H23 lung
# T-47D breast = tested on: T-47D breast
# NCI-H460 NSCLC = tested on: NCI-H460 NSCLC
# RPMI-8226 leukemia = tested on: RPMI-8226 leukemia
# NCI-H226 lung = tested on: NCI-H226 lung
# RXF 393 renal = tested on: RXF 393 renal
# DU-145 prostate = tested on: DU-145 prostate
# MDA-MB-231 breast = tested on: MDA-MB-231 breast
# NCI-H322M lung = tested on: NCI-H322M lung
# K-562 leukemia = tested on: K-562 leukemia
# COLO 205 colon = tested on: COLO 205 colon
# IGROV1 ovarian = tested on: IGROV1 ovarian
# BT-549 breast = tested on: BT-549 breast
# EKVX NSCLC = tested on: EKVX NSCLC
# M14 melanoma = tested on: M14 melanoma
# HL-60(TB) leukemia = tested on: HL-60(TB) leukemia
# LOX IMVI melanoma = tested on: LOX IMVI melanoma
# SK-MEL-28 melanoma = tested on: SK-MEL-28 melanoma
# UO-31 renal = tested on: UO-31 renal
# HCC-2998 colon = tested on: HCC-2998 colon
# HS 578T breast = tested on: HS 578T breast
# SNB-19 CNS = tested on: SNB-19 CNS
# SR leukemia = tested on: SR leukemia
# HT29 colon = tested on: HT29 colon
# NCI-H522 lung = tested on: NCI-H522 lung
# UACC-62 melanoma = tested on: UACC-62 melanoma
# SW-620 colon = tested on: SW-620 colon
# SF-268 CNS = tested on: SF-268 CNS
# MDA-MB-468 breast = tested on: MDA-MB-468 breast
# SK-MEL-2 melanoma = tested on: SK-MEL-2 melanoma
# CAKI-1 renal = tested on: CAKI-1 renal
# U251 glioblastoma = tested on: U251 glioblastoma
# ACHN renal = tested on: ACHN renal
# 786-0 renal = tested on: 786-0 renal
# SK-OV-3 ovarian = tested on: SK-OV-3 ovarian
# SF-295 CNS = tested on: SF-295 CNS
# OVCAR-5 ovarian = tested on: OVCAR-5 ovarian
# KM12 colon = tested on: KM12 colon
# MALME-3M melanoma = tested on: MALME-3M melanoma
# A549 NSCLC = tested on: A549 NSCLC
# MOLT-4 leukemia = tested on: MOLT-4 leukemia
structure (smiles),measurement,setting,value
O=C(Nc1ccccc1/C=C/c1n[nH]c2ccccc12)c1ccccc1,GI50,SNB-75 CNS,2160 nM
same,TGI,SNB-75 CNS,4810 nM
same,GI50,SK-MEL-5 melanoma,1560 nM
same,TGI,SK-MEL-5 melanoma,6100 nM
same,GI50,OVCAR-4 ovarian,4220 nM
same,TGI,OVCAR-4 ovarian,17200 nM
same,GI50,MCF7 breast,514 nM
same,TGI,MCF7 breast,11400 nM
same,GI50,A498 renal,1840 nM
same,TGI,A498 renal,3310 nM
same,GI50,UACC-257 melanoma,1940 nM
same,TGI,UACC-257 melanoma,4300 nM
same,GI50,MDA-MB-435 melanoma,1530 nM
same,TGI,MDA-MB-435 melanoma,4460 nM
same,GI50,PC-3 prostate,1450 nM
same,TGI,PC-3 prostate,2790 nM
same,GI50,SN12C renal,1530 nM
same,TGI,SN12C renal,2900 nM
same,GI50,NCI/ADR-RES ovarian,1990 nM
same,TGI,NCI/ADR-RES ovarian,4430 nM
same,GI50,SF-539 CNS,2040 nM
same,TGI,SF-539 CNS,4760 nM
same,GI50,TK-10 renal,1500 nM
same,TGI,TK-10 renal,3140 nM
same,GI50,HCT-116 colon,1490 nM
same,TGI,HCT-116 colon,2990 nM
same,GI50,HCT-15 colon,1460 nM
same,TGI,HCT-15 colon,2820 nM
same,GI50,HOP-92 NSCLC,1520 nM
same,TGI,HOP-92 NSCLC,5050 nM
same,GI50,OVCAR-3 ovarian,1390 nM
same,TGI,OVCAR-3 ovarian,2930 nM
same,GI50,CCRF-CEM leukemia,1580 nM
same,TGI,CCRF-CEM leukemia,2960 nM
same,GI50,HOP-62 NSCLC,1550 nM
same,TGI,HOP-62 NSCLC,2950 nM
same,GI50,NCI-H23 lung,1160 nM
same,TGI,NCI-H23 lung,12400 nM
same,GI50,T-47D breast,1900 nM
same,TGI,T-47D breast,4050 nM
same,GI50,NCI-H460 NSCLC,1480 nM
same,TGI,NCI-H460 NSCLC,2900 nM
same,GI50,RPMI-8226 leukemia,1560 nM
same,TGI,RPMI-8226 leukemia,2970 nM
same,GI50,NCI-H226 lung,1480 nM
same,TGI,NCI-H226 lung,8440 nM
same,GI50,RXF 393 renal,2930 nM
same,TGI,RXF 393 renal,8110 nM
same,GI50,DU-145 prostate,1470 nM
same,TGI,DU-145 prostate,3040 nM
same,GI50,MDA-MB-231 breast,1480 nM
same,TGI,MDA-MB-231 breast,2990 nM
same,GI50,NCI-H322M lung,1840 nM
same,TGI,NCI-H322M lung,3970 nM
same,GI50,K-562 leukemia,1370 nM
same,TGI,K-562 leukemia,2770 nM
same,GI50,COLO 205 colon,1300 nM
same,TGI,COLO 205 colon,2590 nM
same,GI50,IGROV1 ovarian,5770 nM
same,TGI,IGROV1 ovarian,19600 nM
same,GI50,BT-549 breast,1950 nM
same,TGI,BT-549 breast,3460 nM
same,GI50,EKVX NSCLC,1430 nM
same,TGI,EKVX NSCLC,3940 nM
same,GI50,M14 melanoma,3420 nM
same,TGI,M14 melanoma,14300 nM
same,GI50,HL-60(TB) leukemia,538 nM
same,TGI,HL-60(TB) leukemia,1880 nM
same,GI50,LOX IMVI melanoma,1900 nM
same,TGI,LOX IMVI melanoma,3450 nM
same,GI50,SK-MEL-28 melanoma,2370 nM
same,TGI,SK-MEL-28 melanoma,8160 nM
same,GI50,UO-31 renal,10400 nM
same,TGI,UO-31 renal,22300 nM
same,GI50,HCC-2998 colon,1280 nM
same,TGI,HCC-2998 colon,2580 nM
same,GI50,HS 578T breast,1650 nM
same,TGI,HS 578T breast,3110 nM
same,GI50,SNB-19 CNS,1980 nM
same,TGI,SNB-19 CNS,4380 nM
same,GI50,SR leukemia,1230 nM
same,TGI,SR leukemia,2510 nM
same,GI50,HT29 colon,1490 nM
same,TGI,HT29 colon,2850 nM
same,GI50,NCI-H522 lung,2360 nM
same,TGI,NCI-H522 lung,8590 nM
same,GI50,UACC-62 melanoma,1890 nM
same,TGI,UACC-62 melanoma,3940 nM
same,GI50,SW-620 colon,1870 nM
same,TGI,SW-620 colon,5300 nM
same,GI50,SF-268 CNS,1710 nM
same,TGI,SF-268 CNS,3260 nM
same,GI50,MDA-MB-468 breast,1640 nM
same,TGI,MDA-MB-468 breast,3650 nM
same,GI50,SK-MEL-2 melanoma,3880 nM
same,TGI,SK-MEL-2 melanoma,5810 nM
same,GI50,CAKI-1 renal,2460 nM
same,TGI,CAKI-1 renal,9910 nM
same,GI50,U251 glioblastoma,1550 nM
same,TGI,U251 glioblastoma,2910 nM
same,GI50,ACHN renal,2630 nM
same,TGI,ACHN renal,8820 nM
same,GI50,786-0 renal,1820 nM
same,TGI,786-0 renal,3310 nM
same,GI50,SK-OV-3 ovarian,2870 nM
same,TGI,SK-OV-3 ovarian,11600 nM
same,GI50,SF-295 CNS,1630 nM
same,TGI,SF-295 CNS,3000 nM
same,GI50,OVCAR-5 ovarian,1400 nM
same,TGI,OVCAR-5 ovarian,3330 nM
same,GI50,KM12 colon,40.8 nM
same,TGI,KM12 colon,1010 nM
same,GI50,MALME-3M melanoma,1290 nM
same,TGI,MALME-3M melanoma,2680 nM
same,GI50,A549 NSCLC,1740 nM
same,TGI,A549 NSCLC,3390 nM
same,GI50,MOLT-4 leukemia,1650 nM
same,TGI,MOLT-4 leukemia,3350 nM
